Consider 4 compounds from patent US20070232677A1, “Treatment and prevention of vascular hyperplasia using polyamine and polyamine analog compounds” (priority 2006, published 2007).

For series [1], the system named is baboon vascular grafts (graft intimal hyperplasia). Put plainly: Inhibition of graft intimal hyperplasia by polyamine infusion, baboon aortoiliac bypass graft model. The format is in vivo. Set-up: thickness of grafts, Left Proximal Ave. / thickness of grafts, Left Distal Ave. (Treated site): unit not given here. As to conditions: for thickness of grafts, Left Distal Ave. (Treated site): left distal anastomosis infused with polyamine; for thickness of grafts, Left Distal Ave. (Treated site) / thickness of grafts, Left Proximal Ave.: pump 2.5 ul/hr for 28 days, one animal per line; for thickness of grafts, Left Proximal Ave.: polyamine-infused left graft, proximal anastomosis upstream of polyamine administration. As for the experimental part:
The procedure of Chen et al., Journal of Vascular Surgery 31(2):354 (2000) was used to prepare the animals. Briefly, baboons underwent bilateral aortoiliac bypass grafting with expanded polytetrafluoroethylene grafts. The distal anastomosis of one graft (the left graft) was infused with polyamine; the distal anastomosis of the contralateral graft (right graft) was infused with placebo (saline). The drugs were infused with the Alzet 2ML4 pump at a flow rate of 2.5 ul/hr for 28 days. For administration of CGC-11093, the pump contained 4.4 mg/ml (10 mM) drug and delivered 266 ug/day (7.5 mg in 28 days). For administration of CGC-11159, drug concentration was also at 10 mM; the pump delivered 646.2 ug/day (18.1 mg in 28 days). After 28 days the grafted vessels were harvested and analyzed. All anastomosis/graft samples were harvested by in vivo pressure-perfusion fixation with 10% Neutral Buffered Formalin (NBF) and fixed further overnight in 10% NBF. Samples were cut into several sections (noting proximal and distal) and marked with green dye for standard overnight processing. Processed samples were embedded in paraffin sectioned at […] intervals and stained with conventional hematoxylin and eosin (H&E). For morphometric measurements and analysis, H&E sections were imaged with a Nikon EFD-3 microscope with darkfield and polarized light epiluminescence and an RT Slider Diagnostic Camera. Graft and vessel sections were analyzed with respect to total neointimal area and maximal thickness. Morphometric analysis was performed using Image-Pro Plus 4.5 (Media Cybernetics) software. All images were digitized and archived.

For series [2], the system named is pig femoral AV grafts (graft vein anastomosis/proximal vein, venous neointimal hyperplasia). Kind of series: Histopathology of PTA-injured porcine arteriovenous (AV) grafts with perivascular drug infusion. The format is in vivo. As to conditions: for decrease in luminal stenosis versus placebo: perivascular injections, summary of results, dose not given. As for the experimental part: This example was performed to determine the effect of injections of CGC-11093 and CGC-11159 on the vasculature of pigs following arteriovenous grafting. The histopathology of reactive and inflammatory responses of pig femoral AV grafts 14 days after Mercator Microsyringe infusion with 1 mg CGC-11093 (6 sites), 10 mg CGC-11093 (2 sites), 10 mg CGC-11159 (8 sites), or placebo saline injection (8 sites) in conjunction with percutaneous transluminal angioplasty (PTA) of the graft vein anastomosis and the proximal vein was assessed.
The methods used were as follows: all graft-vein anastomosis/proximal vein (GVA/PV) sites were subjected to angioplasty and perivascular injection via Mercator Microsyringe. Angioplasty was performed and drugs were infused 14 days after graft implant; animals were sacrificed 14 days later for histopathological examination. A total of 24 GVA/PV sites were evaluated. Six sites received 1 mg of CGC-11093; two sites received 10 mg CGC-11093, eight sites received 10 mg of CGC-11159, and eight sites received placebo injection with saline. All injections were performed in conjunction with percutaneous transluminal angioplasty (PTA) of the GVA and PV.
After 14 days, the graft vein anastomosis sites (GVA/PV) were excised en bloc and perfused with formalin. Sectioning of the graft vein anastomosis was performed as follows: briefly, tissue sections were taken at approximately 5 mm intervals through the proximal vein (PV). Tissue sections were taken at approximately 3 mm intervals through the graft-vein anastomosis (GVA) site. Sections were taken at approximately […] intervals through the distal vein (DV). All tissues were routinely processed, embedded in paraffin, sectioned at 5 microns and stained with hematoxylin and eosin for histopathologic evaluation. Numerous histologic sections through each PV, DV and GVA were evaluated. Each section was labeled with the letter P, G, or D (P=proximal vein, G=graft vein anastomosis, and D=Distal vein) and with a corresponding number to indicate proximity to the graft vein anastomosis.
The histopathologic evaluation included a general description of relevant features regardirig tissue reaction and inflammation around the graft vein anastomosis (GVA) and through the proximal femoral vein (PV). Histopathologic features including inflammation, fibrosis, angiogenesis and venous neointimal hyperplasia (VNH) within the GVA and PV were assessed. Attempts were made to differentiate between histopathologic changes attributed to the surgical procedure, secondary affects of GVA, angioplasty and perivascular injection of drug via Mercator Microsyringe.
Initial histopathologic evaluation was performed on all tissues to define the common inflammatory and reactive changes in all specimens. An overall general description of changes in sections of PV and GVA was made. An estimate of the percent occlusion of the most severely affected segment in both the PV and GVA was made. Two precise, perpendicular cross sectional measurements of the lumen were made in the most severely affected section of the PV. In the GVA a single luminal diameter was measured in the most severely affected section. Next, a qualitative assessment of overall severity of VNH, as well as inflammation within the VNH and degree of angiogenesis within the VNH was made for both the PV and the GVA. Additionally, a general description of the overall perivascular tissue reaction around the PV and the GVA was recorded. Lastly, unique, and potentially significant, pathologic features were documented. Unique pathologic features generally included interpretation of the overall severity of the changes, presence or absence of an inflamed seroma, or presence of thrombosis or infection in the GVA or PV. When assessing the degree or severity of a certain histopathologic change (i.e. severity of VNH, etc) a qualitative scoring method was used. A score of 0=absent, 1=minimal, 2=mild, 3=moderate, 4=severe.

“Also recorded” adds a separate entry of the source.

On to `CCCCCNCCCCNCC1CC1CNCCCCNCC` (racemic) [CGC-11302, N-{2-[(4-Ethylamino-butylamino)-methyl]-cyclopropylmethyl}-N′-pentyl-butane-1,4-diamine], for which, in series [1], the “thickness of grafts, Left Distal Ave. (Treated site)” value (from here on “thickness of grafts … (Treated site)”) is on record as 0.822 and the “thickness of grafts, Left Proximal Ave.” value is given as 1.047.
In the case of `CCNCCCCNCC1CC1CNCCCCNCC` (stereo not shown) [CGC-11093], in series [1], the “thickness of grafts … (Treated site)” value was found to be 1.072 and the “thickness of grafts, Left Proximal Ave.” value amounted to 0.499. In series [2] (1 mg), the “degree of VNH angiogenesis, summary” value is listed as “minimal to absent VNH angiogenesis”; the “histopathologic features/changes, summary” value is “fewer significant or potentially deleterious histopathologic features; also recorded: less severe histopathologic changes”; the “severity of VNH inflammation, summary” value is on record as “minimal VNH inflammation”; the “severity of overall VNH in PV and GVA, summary” value was “minimal amount of VNH in both the PV and GVA”. Moreover, in series [2] (1 mg, compared with other animals in the study), the “vascular occlusion, summary” value was “less severe vascular occlusion than other animals in the study”. For the same compound, the “decrease in luminal stenosis versus placebo” value in series [2] was 49.2%.
Take `CCNCCCCNCC1CC1CNCCCCNCC` (stereo not shown) [CGC-11098]: in series [1], the “thickness of grafts … (Treated site)” value stood at 1.778 and the “thickness of grafts, Left Proximal Ave.” value is 0.938.
For the compound `CCNCCCCNCCCCNCCCCNCCCCNCCCCNCCCCNCCCCNCCCCNCCCCNCC` [CGC-11159, CH3CH2—NH—(CH2CH2CH2CH2—NH—)9—CH2CH3], the “decrease in average maximal thickness of hyperplasia in the vascular graft” value in series [1] (left distal anastomosis compared with placebo-treated grafts (right proximal and distal anastomoses), 10 mM, 646.2 ug/day for 28 days) is recorded as about 50%. For the same compound, in series [1], the “thickness of grafts … (Treated site)” value came out at 0.336 and the “thickness of grafts, Left Proximal Ave.” value was found to be 0.695. Moreover, in series [2] (10 mg), the “degree of VNH angiogenesis in PV and GVA, summary” value is “greater degree of VNH angiogenesis in the PV and GVA”; the “incidence of GVA/PV thrombosis” value was “higher incidence of GVA/PV thrombosis”; the “luminal diameter of PV, summary” value was “more likely to have a smaller luminal diameter”; the “perivascular tissue reaction (inflammation around the graft)” value is “prominent, nodular lymphofollicular inflammation forming a rim surrounding the outside surface of the graft; also recorded: prominent, nodular to coalescing lymphocytic inflammation around the implanted graft material; also recorded: more prominent abnormal perivascular tissue reactions”. In series [2] (10 mg), the “severity of overall VNH in PV and GVA, summary” value is “more severe VNH in both the PV and GVA”; the “unique histopathologic features, summary” value was “often developed luminal thrombosis of both the PV and GVA as well as prominent lymphofollicular inflammation surrounding the graft material”. Besides, in series [2] (10 mg, eight sites treated), the “sites that developed fibrin thrombosis within the graft, with some degree of vascular and/or graft occlusion” value is recorded as “five of eight”. Besides, the “luminal occlusion or stenosis of the PV and GVA, summary” value in series [2] (10 mg, most animals, generally associated with thrombosis of the graft) was “more severe luminal occlusion or stenosis of the PV and GVA”. The “severity of VNH inflammation, summary” value in series [2] (10 mg, probably associated with thrombus formation) is “greater severity of VNH inflammation”. For the same compound, the “decrease in luminal stenosis versus placebo” value in series [2] came to 22.6%.
